Legend:
Assay type in all cases: functional
OVCAR-5 = assay: Cytotoxicity against human OVCAR5 cells assessed as cell growth at 1 uM after 48 hrs by sulforhodamine B assay relative to control; conditions: OVCAR-5, 48 h, read-out: Activity
LOX IMVI = assay: Cytotoxicity against human LOXIMVI cells assessed as growth inhibition after 48 hrs by sulforhodamine B assay
HCC 2998 = assay: Cytotoxicity against human HCC2998 cells assessed as cell growth at 1 uM after 48 hrs by sulforhodamine B assay relative to control; conditions: HCC 2998, 48 h, read-out: Activity
NCI-H226 = assay: Cytotoxicity against human NCI-H226 cells assessed as cell growth at 0.1 uM after 48 hrs by sulforhodamine B assay relative to control; conditions: NCI-H226, 48 h, read-out: Activity
COLO 205 = assay: Cytotoxicity against human COLO205 cells assessed as cell growth at 10 uM after 48 hrs by sulforhodamine B assay relative to control; conditions: COLO 205, 48 h, read-out: Activity
UO-31 [1] = assay: Cytotoxicity against human UO31 cells assessed as cell growth at 100 uM after 48 hrs by sulforhodamine B assay relative to control; conditions: UO-31, 48 h, read-out: Activity
SR [2] = assay: Cytotoxicity against human SR cells assessed as cell growth at 100 uM after 48 hrs by sulforhodamine B assay relative to control; conditions: read-out: Activity
UO-31 [3] = assay: Cytotoxicity against human UO31 cells assessed as cell growth at 0.1 uM after 48 hrs by sulforhodamine B assay relative to control; conditions: UO-31, 48 h, read-out: Activity
SR [4] = assay: Cytotoxicity against human SR cells assessed as cell growth at 1 uM after 48 hrs by sulforhodamine B assay relative to control; conditions: read-out: Activity
HOP-62 = assay: Cytotoxicity against human HOP62 cells assessed as cell growth at 0.1 uM after 48 hrs by sulforhodamine B assay relative to control; conditions: HOP-62, 48 h, read-out: Activity
M14 [5] = assay: Cytotoxicity against human M14 cells assessed as cell growth at 0.1 uM after 48 hrs by sulforhodamine B assay relative to control; conditions: M14, 48 h, read-out: Activity
T47D = assay: Cytotoxicity against human T47D cells assessed as cell growth at 0.01 uM after 48 hrs by sulforhodamine B assay relative to control; conditions: read-out: Activity
HCT-116 [6] = assay: Cytotoxicity against human HCT116 cells assessed as cell growth at 100 uM after 48 hrs by sulforhodamine B assay relative to control; conditions: HCT-116, 48 h, read-out: Activity
SK-MEL-28 [7] = assay: Cytotoxicity against human SK-MEL-28 cells assessed as cell growth at 100 uM after 48 hrs by sulforhodamine B assay relative to control; conditions: SK-MEL-28, 48 h, read-out: Activity
UO-31 [8] = assay: Cytotoxicity against human UO31 cells assessed as cell growth at 10 uM after 48 hrs by sulforhodamine B assay relative to control; conditions: UO-31, 48 h, read-out: Activity
MDA-MB-468 = assay: Cytotoxicity against human MDA-MB-468 cells assessed as cell growth at 10 uM after 48 hrs by sulforhodamine B assay relative to control; conditions: MDA-MB-468, 48 h, read-out: Activity
OVCAR-3 = assay: Cytotoxicity against human OVCAR3 cells assessed as cell growth at 1 uM after 48 hrs by sulforhodamine B assay relative to control; conditions: OVCAR-3, 48 h, read-out: Activity
NCI-H522 = assay: Cytotoxicity against human NCI-H522 cells assessed as cell growth at 100 uM after 48 hrs by sulforhodamine B assay relative to control; conditions: NCI-H522, 48 h, read-out: Activity
SF-539 [9] = assay: Cytotoxicity against human SF539 cells assessed as cell growth at 10 uM after 48 hrs by sulforhodamine B assay relative to control; conditions: SF-539, 48 h, read-out: Activity
M14 [10] = assay: Cytotoxicity against human M14 cells assessed as growth inhibition after 48 hrs by sulforhodamine B assay; conditions: M14, 48 h
MDA-MB-435 = assay: Cytotoxicity against human MDA-MB-435 cells assessed as cell growth at 1 uM after 48 hrs by sulforhodamine B assay relative to control; conditions: MDA-MB-435, 48 h, read-out: Activity
UACC-62 [11] = assay: Cytotoxicity against human UACC62 cells assessed as cell growth at 0.1 uM after 48 hrs by sulforhodamine B assay relative to control; conditions: UACC-62, 48 h, read-out: Activity
MDA-MB-231 = assay: Cytotoxicity against human MDA-MB-231 cells assessed as growth inhibition after 48 hrs by sulforhodamine B assay; conditions: MDA-MB-231, 48 h
IGROV-1 = assay: Cytotoxicity against human IGROV1 cells assessed as cell growth at 100 uM after 48 hrs by sulforhodamine B assay relative to control; conditions: IGROV-1, 48 h, read-out: Activity
SNB-19 = assay: Cytotoxicity against human SNB19 cells assessed as cell growth at 100 uM after 48 hrs by sulforhodamine B assay relative to control; conditions: SNB-19, 48 h, read-out: Activity
Hs-578T [12] = assay: Cytotoxicity against human Hs 578T cells assessed as cell growth at 0.1 uM after 48 hrs by sulforhodamine B assay relative to control; conditions: read-out: Activity
Hs-578T [13] = assay: Cytotoxicity against human Hs 578T cells assessed as cell growth at 0.01 uM after 48 hrs by sulforhodamine B assay relative to control; conditions: read-out: Activity
SK-MEL-28 [14] = assay: Cytotoxicity against human SK-MEL-28 cells assessed as cell growth at 10 uM after 48 hrs by sulforhodamine B assay relative to control; conditions: SK-MEL-28, 48 h, read-out: Activity
A498 = assay: Cytotoxicity against human A498 cells assessed as cell growth at 10 uM after 48 hrs by sulforhodamine B assay relative to control; conditions: A498, 48 h, read-out: Activity
SF-539 [15] = assay: Cytotoxicity against human SF539 cells assessed as growth inhibition after 48 hrs by sulforhodamine B assay; conditions: SF-539, 48 h
UACC-62 [16] = assay: Cytotoxicity against human UACC62 cells assessed as growth inhibition after 48 hrs by sulforhodamine B assay; conditions: UACC-62, 48 h
MCF7 = assay: Cytotoxicity against human MCF7 cells assessed as cell growth at 0.01 uM after 48 hrs by sulforhodamine B assay relative to control; conditions: MCF7, 48 h, read-out: Activity
UACC-62 [17] = assay: Cytotoxicity against human UACC62 cells assessed as cell growth at 100 uM after 48 hrs by sulforhodamine B assay relative to control; conditions: UACC-62, 48 h, read-out: Activity
SK-MEL-5 = assay: Cytotoxicity against human SK-MEL-5 cells assessed as cell growth at 0.1 uM after 48 hrs by sulforhodamine B assay relative to control; conditions: SK-MEL-5, 48 h, read-out: Activity
HCT-116 [18] = assay: Cytotoxicity against human HCT116 cells assessed as cell growth at 0.01 uM after 48 hrs by sulforhodamine B assay relative to control; conditions: HCT-116, 48 h, read-out: Activity

Compound	growth at 1 µM (OVCAR-5)	LC50 (LOX IMVI)	TGI (LOX IMVI)	growth at 1 µM (HCC 2998)	growth at 0.1 µM (NCI-H226)	growth at 10 µM (COLO 205)	growth at 100 µM (UO-31 [1])	growth at 100 µM (SR [2])	growth at 0.1 µM (UO-31 [3])	growth at 1 µM (SR [4])	growth at 0.1 µM (HOP-62)	growth at 0.1 µM (M14 [5])	growth at 0.01 µM (T47D)	growth at 100 µM (HCT-116 [6])	growth at 100 µM (SK-MEL-28 [7])	growth at 10 µM (UO-31 [8])	growth at 10 µM (MDA-MB-468)	growth at 1 µM (OVCAR-3)	growth at 100 µM (NCI-H522)	growth at 10 µM (SF-539 [9])	further results
COc1cc(-c2cc(/C=C/C(=O)c3ccc(F)c(F)c3)[nH]n2)cc(OC)c1OC	92%	41.5 µM	12.2 µM	99%	97%	-90%	-16%	8%	86%	84%	101%	91%	95%	-52%	-39%	3%	-2%	95%	-53%	21%	LC50 (concentration killing 50% of cells) (M14 [10]): > 100 µM; TGI (M14 [10]): 11.9 µM; growth at 1 µM (MDA-MB-435): 88%; growth at 0.1 µM (UACC-62 [11]): 93%; LC50 (MDA-MB-231): > 100 µM; TGI (MDA-MB-231): 4.58 µM; growth at 100 µM (IGROV-1): -1%; growth at 100 µM (SNB-19): 22%; growth at 0.1 µM (Hs-578T [12]): 97%; growth at 0.01 µM (Hs-578T [13]): 98%; growth at 10 µM (SK-MEL-28 [14]): 32%; growth at 10 µM (A498): -14%; LC50 (concentration killing 50% of cells) (SF-539 [15]): 70 µM; TGI (SF-539 [15]): 17.7 µM; LC50 (UACC-62 [16]): 35.3 µM; TGI (UACC-62 [16]): 7.44 µM; growth at 0.01 µM (MCF7): 91%; growth at 100 µM (UACC-62 [17]): -81%; growth at 0.1 µM (SK-MEL-5): 96%; growth at 0.01 µM (HCT-116 [18]): 101%
COc1cc(-c2cc(/C=C/C(=O)c3ccc(Cl)c(Cl)c3)[nH]n2)cc(OC)c1OC	92%	78.4 µM	16.4 µM	102%	103%	10%	18%	-51%	85%	23%	101%	94%	90%	-32%	-16%	40%	-13%	102%	-65%	28%	LC50 (concentration killing 50% of cells) (M14 [10]): > 100 µM; TGI (M14 [10]): > 100 µM; growth at 1 µM (MDA-MB-435): 90%; growth at 0.1 µM (UACC-62 [11]): 94%; LC50 (MDA-MB-231): > 100 µM; TGI (MDA-MB-231): > 100 µM; growth at 100 µM (IGROV-1): 9%; growth at 100 µM (SNB-19): 12%; growth at 0.1 µM (Hs-578T [12]): 105%; growth at 0.01 µM (Hs-578T [13]): 98%; growth at 10 µM (SK-MEL-28 [14]): 73%; growth at 10 µM (A498): 43%; LC50 (concentration killing 50% of cells) (SF-539 [15]): 57.8 µM; TGI (SF-539 [15]): 18.7 µM; LC50 (UACC-62 [16]): > 100 µM; TGI (UACC-62 [16]): > 100 µM; growth at 0.01 µM (MCF7): 105%; growth at 100 µM (UACC-62 [17]): 14%; growth at 0.1 µM (SK-MEL-5): 97%; growth at 0.01 µM (HCT-116 [18]): 102%
